Laboratory results: patent US20250145633A1, “SUBSTITUTED FURANOPYRIMIDINE COMPOUNDS AS PDE1 INHIBITORS” (Dart NeuroScience, LLC, priority 2017, published 2025)

Molecular target: human PDE1B enzyme (Homo sapiens (Human), UniProt Q01064)
Experiment: IMAP TR-FRET PDE1B enzymatic assay
Type: biochemical
Conditions: negative log of half-maximal molar inhibitory concentration, 200 nM FAM-cAMP, values given as bins; for IC50: read-out: PDE1b (pIC50) (converted)
Procedure, shortened: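 Full-length GST-tagged human PDE1B (250 pg/well) in IMAP BSA buffer with 10 U/ml calmodulin and 2.5 mM CaCl2; compound pre-incubated 5 min at room temperature, then 200 nM (final) FAM-cAMP for 30 min. IMAP binding reagent/Tb added, 1 h; TR-FRET 520/490 ratio read. IC50 from sigmoidal dose-response fit.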

| SMILES | IC50 [nM] | PDE1b (pIC50) |
| --- | --- | --- |
| Cc1oc2ncnc(NC3(C)CC3)c2c1C(=O)N1CCc2c(ncnc2NC2CC2)C1 [Example 342, 5-[4-(Cyclopropylamino)-5H,6H,7H,8H-pyrido[3,4-d]pyrimidine-7-carbonyl]-6-methyl-N-(1-methylcyclopropyl)furo[2,3-d]pyrimidin-4-amine] | 10 to 100 | – |
| Cc1oc2ncnc(NC3(C)CC3)c2c1C(=O)N1CCc2c(ncnc2NCC2CC2)C1 [Example 343, 5-{4-[(Cyclopropylmethyl)amino]-5H,6H,7H,8H-pyrido[3,4-d]pyrimidine-7-carbonyl}-6-methyl-N-(1-methylcyclopropyl)furo[2,3-d]pyrimidin-4-amine] | – | >8 |
| Cc1oc2ncnc(NC3(C)CC3)c2c1C(=O)N1CCC(c2ncc(Cl)cn2)CC1 [Example 344, 5-[4-(5-Chloropyrimidin-2-yl)piperidine-1-carbonyl]-6-methyl-N-(1-methylcyclopropyl)furo[2,3-d]pyrimidin-4-amine] | – | >8 |
| COc1ccnc(C2CCN(C(=O)c3c(C)oc4ncnc(NC5(C)CC5)c34)CC2)n1 [Example 345, 5-[4-(4-Methoxypyrimidin-2-yl)piperidine-1-carbonyl]-6-methyl-N-(1-methylcyclopropyl)furo[2,3-d]pyrimidin-4-amine] | – | >8 |
| Cc1oc2ncnc(NC3(C)CC3)c2c1C(=O)N1CCC(c2ccc(O)cc2)C1 (stereo not shown) [Example 346, 4-(1-{6-Methyl-4-[(1-methylcyclopropyl)amino]furo[2,3-d]pyrimidine-5-carbonyl}pyrrolidin-3-yl)phenol] | – | >8 |
| Cc1oc2ncnc(NC3(C)CC3)c2c1C(=O)N1CCC(O)(c2ccccc2)C1 (stereo not shown) [Example 347, 1-{6-Methyl-4-[(1-methylcyclopropyl)amino]furo[2,3-d]pyrimidine-5-carbonyl}-3-phenylpyrrolidin-3-ol] | 10 to 100 | – |
| Cc1oc2ncnc(NC3(C)CC3)c2c1C(=O)N1CCC(c2ccc(Cl)cn2)C1 (stereo not shown) [Example 348, 5-[3-(5-Chloropyridin-2-yl)pyrrolidine-1-carbonyl]-6-methyl-N-(1-methylcyclopropyl)furo[2,3-d]pyrimidin-4-amine] | – | >8 |
| Cc1oc2ncnc(NC3(C)CC3)c2c1C(=O)NC1(c2ncccn2)CC1 [Example 349, 6-Methyl-4-[(1-methylcyclopropyl)amino]-N-[1-(pyrimidin-2-yl)cyclopropyl]furo[2,3-d]pyrimidine-5-carboxamide] | 10 to 100 | – |
| Cc1cc(C(C)NC(=O)c2c(C)oc3ncnc(NC4(C)CC4)c23)no1 (stereo not shown) [Example 350, 6-Methyl-N-[1-(5-methyl-1,2-oxazol-3-yl)ethyl]-4-[(1-methylcyclopropyl)amino]furo[2,3-d]pyrimidine-5-carboxamide] | 10 to 100 | – |
| Cc1oc2ncnc(NC3(C)CC3)c2c1C(=O)N1CCC(c2nc(Cl)ncc2F)CC1 [Example 351, 5-[4-(2-Chloro-5-fluoropyrimidin-4-yl)piperidine-1-carbonyl]-6-methyl-N-(1-methylcyclopropyl)furo[2,3-d]pyrimidin-4-amine] | – | >8 |
| Cc1oc2ncnc(NC3(C)CC3)c2c1C(=O)NCc1cc(-c2cnn(C)c2)on1 [Example 352, 6-Methyl-N-{[5-(1-methyl-1H-pyrazol-4-yl)-1,2-oxazol-3-yl]methyl}-4-[(1-methylcyclopropyl)amino]furo[2,3-d]pyrimidine-5-carboxamide] | 10 to 100 | – |
| Cc1oc2ncnc(NC3(C)CC3)c2c1C(=O)NC1(CO)CCC1 [Example 353, N-[1-(Hydroxymethyl)cyclobutyl]-6-methyl-4-[(1-methylcyclopropyl)amino]furo[2,3-d]pyrimidine-5-carboxamide] | 10 to 100 | – |
| Cc1oc2ncnc(NC3(C)CC3)c2c1C(=O)N1CC(c2cccc(F)n2)C1 [Example 354, 5-[3-(6-Fluoropyridin-2-yl)azetidine-1-carbonyl]-6-methyl-N-(1-methylcyclopropyl)furo[2,3-d]pyrimidin-4-amine] | – | >8 |
| Cc1oc2ncnc(NC3(C)CC3)c2c1C(=O)N1CCC(c2ncc(O)cn2)CC1 [Example 355, 2-(1-{6-Methyl-4-[(1-methylcyclopropyl)amino]furo[2,3-d]pyrimidine-5-carbonyl}piperidin-4-yl)pyrimidin-5-ol] | – | >8 |
| Cc1oc2ncnc(NC3(C)CC3)c2c1C(=O)N1CCC(c2ncc(F)cn2)CC1 [Example 356, 5-[4-(5-Fluoropyrimidin-2-yl)piperidine-1-carbonyl]-6-methyl-N-(1-methylcyclopropyl)furo[2,3-d]pyrimidin-4-amine] | 10 to 100 | – |
| Cc1oc2ncnc(NC3(C)CC3)c2c1C(=O)N1CCN(c2ncc(F)cn2)CC1C (stereo not shown) [Example 357, 5-[4-(5-Fluoropyrimidin-2-yl)-2-methylpiperazine-1-carbonyl]-6-methyl-N-(1-methylcyclopropyl)furo[2,3-d]pyrimidin-4-amine] | 10 to 100 | – |

| SMILES | IC50 [nM] | PDE1b (pIC50) |
| --- | --- | --- |
| Cc1oc2ncnc(NC3(C)CC3)c2c1C(=O)N1CCN(c2ncc(F)cn2)C(C)C1 (stereo not shown) [Example 358, 5-[4-(5-Fluoropyrimidin-2-yl)-3-methylpiperazine-1-carbonyl]-6-methyl-N-(1-methylcyclopropyl)furo[2,3-d]pyrimidin-4-amine] | 10 to 100 | – |
| Cc1oc2ncnc(NC3(C)CC3)c2c1C(=O)N1CCN(c2ccc(S(C)(=O)=O)cc2F)CC1 [Example 359, 5-[4-(2-Fluoro-4-methanesulfonylphenyl)piperazine-1-carbonyl]-6-methyl-N-(1-methylcyclopropyl)furo[2,3-d]pyrimidin-4-amine] | 10 to 100 | – |
| Cc1cnc(C2CCN(C(=O)c3c(C)oc4ncnc(NC5(C)CC5)c34)CC2)nc1 [Example 360, 6-Methyl-N-(1-methylcyclopropyl)-5-[4-(5-methylpyrimidin-2-yl)piperidine-1-carbonyl]furo[2,3-d]pyrimidin-4-amine] | – | >8 |
| COc1cccc(C2CCN(C(=O)c3c(C)oc4ncnc(NC5(C)CC5)c34)C2)c1 (stereo not shown) [Example 361, 5-[3-(3-Methoxyphenyl)pyrrolidine-1-carbonyl]-6-methyl-N-(1-methylcyclopropyl)furo[2,3-d]pyrimidin-4-amine] | – | >8 |
| Cc1oc2ncnc(NC3(C)CC3)c2c1C(=O)N1CCN(c2nc(Cl)ncc2F)CC1 [Example 362, 5-[4-(2-Chloro-5-fluoropyrimidin-4-yl)piperazine-1-carbonyl]-6-methyl-N-(1-methylcyclopropyl)furo[2,3-d]pyrimidin-4-amine] | 10 to 100 | – |
| Cc1oc2ncnc(NC3(C)CC3)c2c1C(=O)NNc1ncc(F)cn1 [Example 363, N′-(5-Fluoropyrimidin-2-yl)-6-methyl-4-[(1-methylcyclopropyl)amino]furo[2,3-d]pyrimidine-5-carbohydrazide] | 100 to 1000 | – |
| COc1ccc(C2CCN(C(=O)c3c(C)oc4ncnc(NC5(C)CC5)c34)CC2)nn1 [Example 364, 5-[4-(6-Methoxypyridazin-3-yl)piperidine-1-carbonyl]-6-methyl-N-(1-methylcyclopropyl)furo[2,3-d]pyrimidin-4-amine] | 10 to 100 | – |
| COc1cnc(C2CCN(C(=O)c3c(C)oc4ncnc(NC5(C)CC5)c34)CC2)cn1 [Example 365, 5-[4-(5-Methoxypyrazin-2-yl)piperidine-1-carbonyl]-6-methyl-N-(1-methylcyclopropyl)furo[2,3-d]pyrimidin-4-amine] | – | >8 |
| COc1ccc(C2CCN(C(=O)c3c(C)oc4ncnc(NC5(C)CC5)c34)CC2)nc1 [Example 366, 5-[4-(5-Methoxypyridin-2-yl)piperidine-1-carbonyl]-6-methyl-N-(1-methylcyclopropyl)furo[2,3-d]pyrimidin-4-amine] | – | >8 |
| COc1cccc(C2CCN(C(=O)c3c(C)oc4ncnc(NC5(C)CC5)c34)C2)n1 (stereo not shown) [Example 367, 5-[3-(6-Methoxypyridin-2-yl)pyrrolidine-1-carbonyl]-6-methyl-N-(1-methylcyclopropyl)furo[2,3-d]pyrimidin-4-amine] | – | >8 |
| Cc1oc2ncnc(NC3(C)CC3)c2c1C(=O)N1CCC(c2nccc(C3CC3)n2)CC1 [Example 368, 5-[4-(4-Cyclopropylpyrimidin-2-yl)piperidine-1-carbonyl]-6-methyl-N-(1-methylcyclopropyl)furo[2,3-d]pyrimidin-4-amine] | – | >8 |
| CCCc1ccnc(C2CCN(C(=O)c3c(C)oc4ncnc(NC5(C)CC5)c34)CC2)n1 [Example 369, 6-Methyl-N-(1-methylcyclopropyl)-5-[4-(4-propylpyrimidin-2-yl)piperidine-1-carbonyl]furo[2,3-d]pyrimidin-4-amine] | – | >8 |
| COc1cnc(C2CCN(C(=O)c3c(C)oc4ncnc(NC5(C)CC5)c34)CC2)nc1 [Example 370, 5-[4-(5-Methoxypyrimidin-2-yl)piperidine-1-carbonyl]-6-methyl-N-(1-methylcyclopropyl)furo[2,3-d]pyrimidin-4-amine] | – | >8 |
| COc1ccc(CC2(NC(=O)c3c(C)oc4ncnc(NC5(C)CC5)c34)CC2)cc1 [Example 371, N-{1-[(4-Methoxyphenyl)methyl]cyclopropyl}-6-methyl-4-[(1-methylcyclopropyl)amino]furo[2,3-d]pyrimidine-5-carboxamide] | 10 to 100 | – |
| Cc1oc2ncnc(NC3(C)CC3)c2c1C(=O)N1CCC(c2cccc(Br)n2)C1 (stereo not shown) [Example 372, 5-[3-(6-Bromopyridin-2-yl)pyrrolidine-1-carbonyl]-6-methyl-N-(1-methylcyclopropyl)furo[2,3-d]pyrimidin-4-amine] | – | >8 |
